Data reported in patent publication US20220323444A1, “Methods of Treating Advanced Prostate Cancer” (The Medical College of Wisconsin, Inc., priority 2019, published 2022).

What was measured:
[1] = test system: nuclear active Stat5 in PCs; experiment: Immunohistochemistry of active Stat5 in PCs of patients treated with ENZ; assay type: in vivo, human; settings: biopsies of ENZ-treated PCs
Excerpt: We recently reported that ENZ induces a hyperactivated feed-forward Jak2-Stat5 signaling loop in PC to promote ENZ-resistant PC growth(50).

[2] = test system: EMT markers (N-cadherin, Vimentin, Twist1, E-cadherin) in PC cell lines; experiment: EMT marker expression in PC cell lines treated with ENZ; assay type: cell-based; settings: three PC cell lines, 12 days
Experimental: Lenti-viral expression of ShStat5 3 days prior to ENZ treatment (at indicated concentrations) blocked ENZ-induction of the EMT markers.
(§1) To evaluate if ENZ induces EMT and migration of PC cells in our hands, three different PC cell lines were treated with ENZ for 12 days and analyzed for the expression of EMT markers (N-cadherin, Vimentin and Twist1) by immunoprecipitation (IP) and western blotting (FIG. 13). […] The ENZ-induced PC cell migration was inhibited by genetic ablation of Stat5 by lentiviral expression of shStat5 vs. shCtrl (FIG. 14). Human CWR22Pc cells, when inoculated to the prostates of immunocompromised mice, form distant metastases in the liver in 8 weeks after orthotopic growth.

[3] = test system: Stat5 and Jak2 phosphorylation in PC cells; experiment: ENZ-induced Jak2-Stat5 phosphorylation in PC cells (IP and WB); assay type: cell-based
Experimental: CWR22Pc and LAPC4 PC cells were treated with ENZ or vehicle for the indicated periods of time. Levels of active Stat5 were determined by immunoprecipitation (IP) of Stat5 followed by immunoblotting (WB) for pStat5a/b and total Stat5. Whole cell lysates (WCL) were immunoblotted for pStat3, Stat3 and Actin. […] CWR22Pc and LAPC4 cells were transduced with lentiviral AR shRNA (shAR) or lenti-shCtrl for 3 days followed by treatment with ENZ or vehicle for 7 days at the indicated concentrations.
PC cells were cultured with ENZ or Jak2 inhibitor AZD1480 (800 nM) alone or in combination for 12 days. Expression levels of active Stat5 were determined by IP of Stat5 followed by WB for pStat5a/b and total Stat5. WCLs were immunoblotted for pStat3, Stat3 and Actin. […] Jak2 was suppressed by lentiviral Jak2 shRNA vs. shCtrl in PC cells for 3 days followed by ENZ or vehicle for 7 days. Active Stat5, Stat5 and Jak2 levels were evaluated by IP and WB, as depicted. […] PC cells were treated with ENZ or vehicle for 6 h at the indicated concentrations. Control cells were stimulated with prolactin (Prl) (10 nM) for 20 min as control for cytokine-induced Jak2 phosphorylation. […] Alternatively, PC cells were treated with ENZ or vehicle for 12 days or stimulated with Prl for 20 min at the indicated concentrations. Stat5 and Jak2 were IP:ed and WB:ed for pStat5, pJak2, tot Stat5, and total Jak2.
To investigate whether AR is required for ENZ induction of Stat5 signaling, we inhibited AR expression in CWR22Pc and LAPC4 cells by genetic knockdown using lentiviral expression of AR shRNA (FIG. 9C).
To further assess the involvement of Jak2 in ENZ-induced Stat5 activation, Jak2 was genetically knocked down by lentiviral expression of Jak2 shRNA in CWR22Pc and LAPC4 cells for 3 days followed by ENZ treatment for 7 days.

[4] = test system: CWR22Rv1, CWR22Pc and LAPC4 cells; experiment: PC cell migration, Boyden chamber assay; assay type: cell-based; settings: Fibronectin chemoattractant
Experimental: Stat5 was genetically knocked down by lentiviral expression of shStat5 with shCtrl as control for 3 days followed by treatment with ENZ (40 μM; CWR22Pc, CWR22Rv1; 20 μM LAPC-4) vs. DMSO for 10 days. Equivalent numbers of cells were plated to Boyden chamber inserts with Fibronectin as the chemoattractant in the bottom well, and the migrated cells were imaged and counted.
as §1

CRPC = settings: cited from earlier work
[5] = test system: AR mRNA and protein levels in CWR22Pc tumors; experiment: AR levels in CWR22Pc xenograft tumors in nude mice; assay type: in vivo; settings: 40 mg/kg i.p. daily for 40 days
Experimental: FIG. 4A. Pharmacological Stat5 inhibition decreases AR protein and mRNA levels in PC xenograft tumors in nude mice. Nuclear AR and Stat5 levels were detected by immunostaining of paraffin-embedded tissue sections of CWR22Pc tumors from mice treated with IST5-002 (IST5) (40 mg/kg; i.p.) for 40 days. Also, AR mRNA levels were evaluated by q-RT-PCR. FIG. 4B. Pharmacological inhibition of Stat5 by IST5-002 or pacritinib suppress AR mRNA levels in patient-derived PCs cultured ex vivo. Clinical PCs (n=4) obtained from prostatectomies were cultured for 7 days ex vivo in 3D tumor explant cultures in the presence of Stat5 inhibitor IST5-002 (12.5 μM) or PAC (1 μM) vs. vehicle, and AR mRNA levels were analyzed by qRT-PCR.
To evaluate whether Stat5 regulation of AR mRNA and protein levels is evident in an in vivo setting where PC cells were grown as xenograft tumors in mice, CWR22Pc cells (1.5×10^7) were inoculated subcutaneously into flanks of nude mice (one tumor/mouse). After tumors reached approximately 100 mm^3 in size (12 d), mice were treated daily for 40 days by intraperitoneal injection with IST5-002 (40 mg/kg body weight) or vehicle (0.3% hydroxypropyl cellulose/H2O) (5 mice/group). AR mRNA and protein levels were evaluated by q-RT-PCR(47) and by immunohistochemistry, as previously described(18, 45, 46, 48, 49).

[6] = test system: FL-AR, AR-V7 and AR-V9 mRNA and AR protein levels in PC cells; experiment: AR mRNA (qRT-PCR) and AR / pYStat5 protein (immunoblot) in PC cells treated with Jak2 inhibitors; assay type: cell-based; settings: CWR22Rv1 CRPC cell line, FIGS. 6A-6B
Experimental: Jak2 was inhibited for 3 days by Jak2 inhibitors AZD1480, gandotinib, pacritinib, baricitinib or fedratinib at indicated concentrations followed by RNA extraction and quantification of FL-AR, AR-V7 and AR-V9 mRNA levels by qRT-PCR.
Immunoblot analysis of AR expression in PC cells treated with increasing concentrations of Jak2 inhibitors AZD1480, gandotinib, pacritinib or baricitinib for 72 h.
(§2) We tested whether Stat5 regulation of AR mRNA and protein levels provides an opportunity to control AR levels pharmacologically by inhibition of Jak2 signaling. […] Finally, to evaluate the effect of PAC and FED on PC cell viability, CWR22Rv1 cells were treated with increasing concentrations of PAC or FED for 3 days.

[7] = test system: CWR22PC PC cells that survive treatment with ENZ; experiment: Viability of CWR22PC cells surviving ENZ treatment; assay type: cell-based, human; settings: ENZ 5 days, then 300 nM for 4 days
Experimental: The PC cells were treated with ENZ (or vehicle) for 5 days, and were then treated with ENZ, vehicle, PAC, or FED for 4 days.
The effect of PAC and FED in blocking the growth of PC cells that survive treatment with the anti-androgen enzalutamide (ENZ) was tested in CWR22PC PC cells. The PC cells were treated in culture with ENZ (or vehicle) for 5 days, and were then treated with ENZ (40 μM), vehicle, PAC (300, 600 or 1200 nM), or FED (300, 600 or 1200 nM) for 4 days. […] Thus, PAC and FED can be used to reduce ENZ resistant PC cell growth.

[8] = test system: AR mRNA and protein in PC cells that survive ENZ treatment; experiment: AR expression in CWR22PC cells surviving ENZ treatment; assay type: cell-based, human; settings: ENZ 5 days, then PAC or FED for 4 days
[9] = test system: AR-FL, AR-V7 and AR-V9 mRNA expression; experiment: Low concentrations of FED and PAC on AR mRNA expression; assay type: cell-based; settings: 0-0.6 μM
Experimental: As a preliminary study, we tested whether low contrations of FED and PAC (0, 0.01875, 0.0375, 0.075, 0.15, 0.3, 0.6 μM) reduce mRNA expression of full-length (AR-FL) and variant (AR-V7 and AR-V9) forms of AR.

[10] = test system: androgen-responsive PC cell viability; experiment: PC cell viability time-course versus androgen withdrawal (crystal violet staining and cell counting); assay type: cell-based
Excerpt: Crystal violet staining and cell counting were used to compare PC viability over a time-course of 2-10 days between cells treated with ADT and control (+ADT), cells treated with PAC and control (+DMSO), cells treated with FED and control (+DMSO), cells treated with Jak2 knockdown (shJak2) and control (shCtrl), and cells treated with Stat5 knockdown (shStat5) and control (shCtrl).
Next, we compared the effect of androgen deprivation therapy (ADT) carried out by androgen withdrawal, which is the standard therapy used to treat advanced prostate, to the effect of PAC and FED on androgen-responsive PC cell viability over a time-course of 2-10 days using crystal violet staining and cell counting. Based on this analysis, ADT decreased cell viability by 30% compared to control (+DHT), PAC decreased cell viability by 82% after 4 days of treatment and by 96% after 6 days of treatment compared to the control (+DMSO), FED decreased cell viability by 87% after 4 days of treatment and by 98% after 6 days of treatment compared to control (+DMSO), Jak2 knockdown (shJak2) decreased cell viability by 92% after 4 days of lentivirus infection and by 95% after 6 days of lentivirus infection compared to control (shCtrl), and Stat5 knockdown (shStat5) decreased cell viability by 96% after 4 days of lentivirus infection and by 98% after 6 days of lentivirus infection compared to control (shCtrl) (FIG. 25).

[11] = test system: FL-AR and AR-V protein levels in CWR22Rv1 cells; experiment: Pilot experiment: FED on AR protein levels in CWR22Rv1 cells (IB); assay type: cell-based; settings: CWR22Rv1, 4 days
Excerpt: Jak2 was inhibited for 4 days by fedratinib (FED) at indicated concentrations followed by quantification of FL-AR, AR-V7 and AR-V9 protein levels by IB.
We conducted a pilot experiment to test the efficacy of FED in suppressing AR levels in PC cells (FIG. 16).

CWR22Rv1 PC cells = experiment: Death / viability of CWR22Rv1 PC cells treated with Jak2 inhibitors; assay type: cell-based; settings: 72 h; CWR22Rv1, at 3 days; read-out: IC50, induction of death of CWR22Rv1 PC cells
Experimental: as §2

[12] = test system: AR mRNA and protein expression in CWR22PC cells; experiment: PAC and FED on AR expression after Stat5-shRNA in CWR22PC cells; assay type: cell-based, human; settings: lentiviral Stat5-shRNA
Excerpt: We tested whether PAC and FED are able to further reduce AR mRNA and/or protein expression following genetic suppression of AR gene expression via lentiviral expression of Stat5-shRNA in CWR22PC cells.

[13] = test system: AR protein levels in CWR22PC cells; experiment: Time-course of AR protein levels in CWR22PC cells; assay type: cell-based, human; settings: timepoints 12-72 h
[14] = test system: AR-FL, AR-V7 and AR-V9 expression and Stat5 phosphorylation in PC cell lines; experiment: Clinical grade versus research grade pacritinib: Stat5 phosphorylation and AR expression in PC cell lines; assay type: cell-based
Experimental: Control cells were treated with […] (ShCtrl).
The ability of clinical grade pacritinib (CTI Biopharma) to inhibit Stat5 phosphorylation and suppress AR expression in prostate cancer cells in vitro was compared to that of research grade pacritinib (MedChem Express (MCE)) and to cells in which Jak2 was knocked down using lentivirus expressing Jak2-shRNA (shJak2). […] Thus, clinical grade pacritinib induces the same effects as research grade pacrtinib, suppressing AR levels and reducing PC cell viability.

Row | SMILES | FL and AR-V AR mRNA and protein levels [6] | growth / viability of PC cells surviving ENZ treatment [7] | AR expression at mRNA and protein level in PC cells that survive ENZ treatment [8] | mRNA expression of AR-FL, AR-V7 and AR-V9 versus concentration [9] | decrease in cell viability compared to control (+DMSO) ([10]; after 4 days of treatment) [%] | decrease in cell viability compared to control (+DMSO) ([10]; after 6 days of treatment) [%] | IC50 (CWR22Rv1 PC cells) [nM] | further reduction of AR mRNA/protein expression after Stat5-shRNA [12] | other results
1 | CNC(=O)c1ccc(N2C(=S)N(c3ccc(C#N)c(C(F)(F)F)c3)C(=O)C2(C)C)cc1F [ENZ, 4-(3-(4-cyano-3-(trifluoromethyl)phenyl)-5,5-dimethyl-4-oxo-2-thioxoimidazolidin-1-yl)-2-fluoro-N-methylbenzamide] |  |  |  |  |  |  |  |  | levels of nuclear active Stat5 versus hormone-naïve PCs [1]: significantly (p<0.0001) elevated; expression of EMT markers [2]: induced the expression of N-cadherin, Vimentin and Twist1, while suppressing E-cadherin expression; Stat5 phosphorylation in PC cell lines ([3]; FIG. 9): induced a robust Stat5 phosphorylation; phosphorylation of Jak2 in PC cells ([3]; FIGS. 10C-10D): induced robust phosphorylation of Jak2; migration of PC cell lines [4]: induces a robust migration; improvement in survival of PC patients (CRPC): 4-6 months
2 | O=P(O)(O)OC[C@H]1O[C@@H](n2cnc3c(NCc4ccccc4)ncnc32)[C@H](O)[C@@H]1O [IST5-002] |  |  |  |  |  |  |  |  | AR mRNA and protein expression in PC tumors in vivo [5]: marked decrease in AR mRNA and protein expression
3 | Cc1cnc(Nc2ccc(OCCN3CCCC3)cc2)nc1Nc1cccc(S(=O)(=O)NC(C)(C)C)c1 [fedratinib, N-tert-Butyl-3-{5-methyl-2-[4-(2-pyrrolidin-1-yl-ethoxy)-phenylamino]-pyrimidin-4-ylamino}-benzenesulfonamide] | dose-dependent reduction | able to block the growth PC cells surviving ENZ treatment with very high efficacy | reduces expression of AR at both the mRNA and protein level | AR expression levels decrease with increased concentrations | 87 | 98 | 300 | no further decrease in AR expression levels | FL-AR and AR-V protein levels [11]: depletes FL-AR and AR-V protein levels almost entirely
4 | C1=C/COCc2cc(ccc2OCCN2CCCC2)Nc2nccc(n2)-c2cccc(c2)COC/1 [pacritinib, (16E)-11-[2-(1-Pyrrolidinyl)ethoxy]-14,19-dioxa-5,7,26-triazatetracyclo[19.3.1.12,6.18,12]heptacosa-1(25),2(26),3,5,8,10,12(27),16,21,23-decaene] | dose-dependent reduction | able to block the growth PC cells surviving ENZ treatment with very high efficacy | reduces expression of AR at both the mRNA and protein level | AR expression levels decrease with increased concentrations | 82 | 96 | 300 | no further decrease in AR expression levels | time after treatment at which AR protein levels start to decrease [13]: 48 h; efficacy in suppressing AR protein expression relative to research grade pacritinib ([14]; CWR22PC and CWR22Rv1, FIG. 18): has higher efficacy than research grade pacritinib (MCE); phosphorylation of Stat5 ([14]; CWR22Pc, LAPC4): decreases phosphorylation of Stat5; AR expression at the protein level ([14]; CWR22Rv1 and CWR22PC): caused a reduction in AR expression at the protein level; mRNA expression of AR-FL, AR-V7 and AR-V9 ([14]; CWR22Rv1 and CWR22PC): reduced mRNA expression levels of both full-length (AR-FL) and variant (AR-V7 and AR-V9) forms of AR; efficacy in suppressing AR mRNA expression relative to research grade pacritinib ([14]; CWR22Rv1 and CWR22PC, FIG. 17): has higher efficacy than research grade pacritinib (MCE)
